According to PMC10518255, “A first-in-class pan-lysyl oxidase inhibitor impairs stromal remodeling and enhances gemcitabine response and survival in pancreatic cancer” (Nature Cancer, 2023):
Values joined by “and” are separate entries in the source; they are usually repeats but may differ in a detail not shown here. Identical values can stand only once.

Key:
Microsomal stability = assay type: in vitro ADME; conditions: microsomes; In vitro (human)
[1] = Plasma concentration profile after oral PXS-5505 30 mg/kg (Extended Data Fig. 3f); assay type: in vivo, mice; conditions: for Plasma concentration: mice, individual replicates
LOXL2 = target: T1, LOXL2 (Homo sapiens, UniProt Q9Y4K0); test: Lysyl oxidase enzymatic activity, fluorescence-based assay, IC50; assay type: biochemical
T1 sequence (Q9Y4K0 26-774): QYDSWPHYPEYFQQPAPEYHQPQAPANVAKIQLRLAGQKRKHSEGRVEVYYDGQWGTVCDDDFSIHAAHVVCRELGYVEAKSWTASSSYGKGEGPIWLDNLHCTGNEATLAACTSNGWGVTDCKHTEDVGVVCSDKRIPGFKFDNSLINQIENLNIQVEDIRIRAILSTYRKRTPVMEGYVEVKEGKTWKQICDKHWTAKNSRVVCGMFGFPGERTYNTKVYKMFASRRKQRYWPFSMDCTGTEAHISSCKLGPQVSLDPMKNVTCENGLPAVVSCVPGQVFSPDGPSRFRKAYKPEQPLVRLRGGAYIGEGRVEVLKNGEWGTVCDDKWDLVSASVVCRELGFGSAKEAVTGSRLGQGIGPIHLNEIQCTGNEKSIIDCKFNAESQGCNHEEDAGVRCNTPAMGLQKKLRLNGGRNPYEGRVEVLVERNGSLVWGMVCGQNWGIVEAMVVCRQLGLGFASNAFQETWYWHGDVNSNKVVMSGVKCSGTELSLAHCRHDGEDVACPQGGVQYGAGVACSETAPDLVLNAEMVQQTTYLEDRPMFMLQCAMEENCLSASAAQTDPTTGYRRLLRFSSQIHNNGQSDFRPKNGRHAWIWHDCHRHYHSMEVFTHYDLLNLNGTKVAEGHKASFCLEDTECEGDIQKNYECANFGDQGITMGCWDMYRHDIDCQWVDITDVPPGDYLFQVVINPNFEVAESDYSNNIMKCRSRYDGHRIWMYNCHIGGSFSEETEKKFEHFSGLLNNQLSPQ
Source text: Data are presented as mean ± s.d. […] Data presented as mean ± s.d. […] Source data TEXT PRINTED IN THE PICTURE: (b) PXS-5505: Recombinant DAO IC50 (nM): >30,000; Recombinant SSAO/VAP1 IC50 (nM): >30,000; Recombinant MAO-A IC50 (nM): >30,000; Recombinant MAO-B IC50 (nM): >30,000 | (f) PXS-5505: Fibroblast LOX IC50 (nM): 4,930; Recombinant LOXL-1 IC50 (nM): 1,590; Recombinant LOXL-2 IC50 (nM): 570; Recombinant LOXL-3 IC50 (nM): 1,800; Recombinant LOXL-4 IC50 (nM): 190
In characterizing PXS-5505, the half-maximum inhibitory concentration (IC50) values for each of the lysyl oxidase family members were determined by measuring enzymatic activity using a fluorescence-based assay.
Data presented as mean values +/− SD. f. […] Data presented as mean values +/− SD. […] Data presented as mean values +/− SD. […] Data presented as mean values +/− SD. Ordinary one-way ANOVA for multiple comparison test performed. Source data

Question: For `Cl.Cl.NC/C=C(\F)CS(=O)(=O)c1cccc2cccnc12.O` [PXS-5505, (Z)-3-fluoro-4-(quinolin-8-ylsulfonyl)but-2-en-1-amine dihydrochloride monohydrate], which remaining at 1 h (Microsomal stability) is on record?
Answer: 97%

Question: What about the Plasma concentration ([1]; oral 5 mg/kg, time 0.5 hrs, 5 mg/kg) of the same compound?
Answer: 424 and 270.3 and 246.9

Question: And the Plasma concentration ([1]; oral 5 mg/kg, time 1 hrs, 5 mg/kg)?
Answer: 183.1 and 190 and 142.6

Question: And the Plasma concentration ([1]; oral 5 mg/kg, time 2 hrs, 5 mg/kg)?
Answer: 40.1 and 93 and 39.5

Question: And the Plasma concentration ([1]; oral 5 mg/kg, time 4 hrs, 5 mg/kg)?
Answer: 10.2 and 13.8 and 3.1

Question: And the Plasma concentration ([1]; oral 5 mg/kg, time 8 hrs, 5 mg/kg)?
Answer: 3.2 and 2.1 and 1.3

Question: What about the Plasma concentration ([1]; oral 10 mg/kg, time 0.5 hrs, 10 mg/kg) of the same compound?
Answer: 1283.4 and 374.2 and 656.3

Question: And the Plasma concentration ([1]; oral 10 mg/kg, time 1 hrs, 10 mg/kg)?
Answer: 814.4 and 337 and 493.5

Question: What about the Plasma concentration ([1]; oral 10 mg/kg, time 2 hrs, 10 mg/kg) of the same compound?
Answer: 138.5 and 336.7 and 262.8

Question: What about the Plasma concentration ([1]; oral 10 mg/kg, time 4 hrs, 10 mg/kg) of the same compound?
Answer: 113.3 and 25.7 and 30.1

Question: And the Plasma concentration ([1]; oral 10 mg/kg, time 8 hrs, 10 mg/kg)?
Answer: 14.4 and 5.9 and 4.9

Question: And the Plasma concentration ([1]; oral 30 mg/kg, time 0.5 hrs, 30 mg/kg)?
Answer: 3584.3 and 3445.6 and 4112.8

Question: What about the Plasma concentration ([1]; oral 30 mg/kg, time 1 hrs, 30 mg/kg) of the same compound?
Answer: 3340.5 and 2725.9 and 2974.4

Question: And the Plasma concentration ([1]; oral 30 mg/kg, time 2 hrs, 30 mg/kg)?
Answer: 1379.4 and 1690.4 and 1354.7

Question: And the Plasma concentration ([1]; oral 30 mg/kg, time 4 hrs, 30 mg/kg)?
Answer: 160.9 and 186.3 and 206.9

Question: What about the Plasma concentration ([1]; oral 30 mg/kg, time 8 hrs, 30 mg/kg) of the same compound?
Answer: 13.1 and 14.5 and 13.6

Question: And the half-life ([1]; mouse, plasma, single oral dose 30 mg kg−1, read-out: calculated half-life (plasma) (converted))?
Answer: 1 h

Question: What about the IC50 (LOXL2) of the same compound?
Answer: 570 nM

Question: What about the “LOXL2 activity, IC50 determination curve” value (LOXL2; log(Concentration) -4.52288, replicates, 30 µM) of the same compound?
Answer: 0.9304 and 1.355 and 0.47 and 0.4711 and 0.6366 and 0.3339 and 2.414 and 1.859 and 1.553 and 2.478

Question: What about the “LOXL2 activity, IC50 determination curve” value (LOXL2; log(Concentration) -5, replicates, 10 µM) of the same compound?
Answer: 0.791 and 0.552 and 3.171 and 2.146 and 2.6 and 2.324 and 4.194 and 15.0185 and 14.1707 and 8.37

Question: What about the “LOXL2 activity, IC50 determination curve” value (LOXL2; log(Concentration) -5.47712, replicates, 3.333 µM) of the same compound?
Answer: 9.121 and 8.824 and 12.3933 and 6.2776 and 9.388 and 8.093 and 13.2114 and 39.9206 and 33.7785 and 20.6899

Question: What about the “LOXL2 activity, IC50 determination curve” value (LOXL2; log(Concentration) -5.95424, replicates, 1.111 µM) of the same compound?
Answer: 20.2389 and 25.6139 and 36.0073 and 28.0488 and 26.7357 and 24.6346 and 38.4827 and 46.4776 and 45.1428 and 35.5222

Question: And the “LOXL2 activity, IC50 determination curve” value (LOXL2; log(Concentration) -6.43136, replicates, 0.3704 µM)?
Answer: 49.7826 and 57.6495 and 70.9317 and 50.7979 and 55.1496 and 52.5589 and 67.2849 and 60.9084 and 60.7641 and 53.7886

Question: What about the “LOXL2 activity, IC50 determination curve” value (LOXL2; log(Concentration) -6.90849, replicates, 0.1235 µM) of the same compound?
Answer: 78.7223 and 82.1964 and 89.3928 and 77.9843 and 81.0351 and 77.3849 and 88.1863 and 70.6401 and 64.9941 and 65.916

Question: What about the “LOXL2 activity, IC50 determination curve” value (LOXL2; log(Concentration) -7.38561, replicates, 0.04115 µM) of the same compound?
Answer: 84.6124 and 93.105 and 97.9338

Question: And the “LOXL2 activity, IC50 determination curve” value (LOXL2; log(Concentration) -7.86273, replicates, 0.01372 µM)?
Answer: 94.5455 and 97.658 and 97.7862 and 96.4122 and 96.1969 and 92.4844 and 101.479 and 86.0269 and 80.2817 and 84.4595

Question: What about the “LOXL2 activity, IC50 determination curve” value (LOXL2; log(Concentration) -8.33985, replicates, 0.004572 µM) of the same compound?
Answer: 93.002 and 104.67 and 103.129 and 98.6809 and 97.1184 and 102.587 and 94.1262 and 87.5963 and 94.8578

Question: What about the “LOXL2 activity, IC50 determination curve” value (LOXL2; log(Concentration) -8.81697, replicates, 0.001524 µM) of the same compound?
Answer: 103.323 and 104.142 and 98.8815 and 101.169 and 98.4227 and 104.725 and 98.8974 and 89.6166 and 94.7795

Question: What about the “LOXL2 activity, IC50 determination curve” value (LOXL2; log(Concentration) -9.29409, replicates, 0.000508 µM) of the same compound?
Answer: 94.0836 and 101.708 and 97.4085 and 100.105 and 99.6157 and 105.819 and 98.717 and 92.3043 and 96.8459

Question: What about the activity at 0.004572 µM (LOXL2; read-out: LOXL2 activity, IC50 determination curve, log(Concentration) -8.33985, replicates) of the same compound?
Answer: 91.8%

Question: And the activity at 0.001524 µM (LOXL2; read-out: LOXL2 activity, IC50 determination curve, log(Concentration) -8.81697, replicates)?
Answer: 95.1%

Question: And the activity at 0.000508 µM (LOXL2; read-out: LOXL2 activity, IC50 determination curve, log(Concentration) -9.29409, replicates)?
Answer: 92%
